Results from PubChem BioAssay (NCI).
Values joined by “and” are separate entries in the source; they are usually repeats but may differ in a detail not shown here. Identical values can stand only once.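 Values below derive from 48-hour exposures of cells grown in 96-well plates, with endpoints linearly interpolated between the two concentrations bracketing the appropriate inhibition level. At the GI50, growth is halved. At the TGI there is no net growth.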

Assays:
Assay in all cases: NCI anticancer screen, dose series, 48 h
KM12 colon = test system: KM12 colon
HCT-116 colon = test system: HCT-116 colon
EKVX NSCLC = test system: EKVX NSCLC
A498 renal = test system: A498 renal
MDA-MB-231 breast = test system: MDA-MB-231 breast
OVCAR-8 ovarian = test system: OVCAR-8 ovarian
SNB-75 CNS = test system: SNB-75 CNS
SK-MEL-28 melanoma = test system: SK-MEL-28 melanoma
SK-OV-3 ovarian = test system: SK-OV-3 ovarian
SK-MEL-5 melanoma = test system: SK-MEL-5 melanoma

| Compound | GI50 (KM12 colon) | TGI (KM12 colon) | GI50 (HCT-116 colon) | TGI (HCT-116 colon) [µM] | GI50 (EKVX NSCLC) [µM] | TGI (EKVX NSCLC) [µM] | GI50 (A498 renal) | TGI (A498 renal) | GI50 (MDA-MB-231 breast) | TGI (MDA-MB-231 breast) [µM] | GI50 (OVCAR-8 ovarian) | TGI (OVCAR-8 ovarian) [µM] | GI50 (SNB-75 CNS) | TGI (SNB-75 CNS) [µM] | GI50 (SK-MEL-28 melanoma) | TGI (SK-MEL-28 melanoma) [µM] | GI50 (SK-OV-3 ovarian) | TGI (SK-OV-3 ovarian) | GI50 (SK-MEL-5 melanoma) | TGI (SK-MEL-5 melanoma) [µM] |
| --- | --- | --- | --- | --- | --- | --- | --- | --- | --- | --- | --- | --- | --- | --- | --- | --- | --- | --- | --- | --- |
| O=c1[nH][nH]c(=O)c2c(O)c(-c3ccccc3)ncc12 | 34.2 µM and 53.1 µM | 482 µM | 55 µM and 132 µM | 405 | 228 | 939 | 24.9 µM and 32.2 µM | 61.7 µM and 119 µM | 37.7 µM and 113 µM | 385 | 37 µM and 64.6 µM | 649 | 35.4 µM and 37.6 µM | 353 | 31.9 µM and 40.4 µM | > 1000 | 27.8 µM and 120 µM | 93.3 µM and 488 µM | 45.8 µM and 175 µM | 357 |
| CCCCCCCCCCCCCC(=O)NO | – | 47.2 µM | – | > 94.9 | – | 54.1 | – | 63.2 µM | – | > 100 | – | 50.7 | – | 40 | – | 75.8 | – | 73.5 µM | – | 26.5 |
| CCN(CC)CCOc1ccc(NC(=O)C(C(C)C)N2C(=O)/C(=C/c3ccc(Br)cc3)SC2=S)cc1 (configuration not stated) | 3.19 µM | 11.3 µM | 1.86 µM | 3.47 | 5.24 | 18.8 | 1.52 µM | 14.6 µM | 1.85 µM | 3.67 | 3.24 µM | 10.3 | 7.82 µM | 21.1 | 2.07 µM | 4.35 | 15.9 µM | 31.7 µM | 3.71 µM | 12.8 |
| COC1/C=C/OC2(C)Oc3c(C)c(O)c4c(O)c(c(/C=N/N(c5ccccc5)c5ccccc5)c(O)c4c3C2=O)NC(=O)C(C)=C/C=C/C(C)C(O)C(C)C(O)C(C)C(OC(C)=O)C1C (configuration not stated) | 1.65 µM | 6.45 µM | 0.858 µM | 1.76 | 2.78 | 11.3 | 1.63 µM | 7.42 µM | 1.38 µM | 4.14 | 1.8 µM | 7.97 | 1.66 µM | 7.18 | 1.07 µM | 2.43 | 6.38 µM | 12.9 µM | 1.76 µM | 6.75 |
| CCN(CC)CCNc1ccc(N=Nc2cnc3ccccc3c2)c2ccccc12 | 1.56 µM | 2.89 µM | 1.51 µM | 2.84 | – | – | 1.65 µM | 3.05 µM | 1.12 µM | 2.38 | 2.09 µM | 4.19 | 1.36 µM | 2.89 | 1.79 µM | 3.29 | 1.72 µM | 3.2 µM | 1.67 µM | 3.03 |
| COc1ccc(-c2nsc3c2NC(=O)CC3c2cccc(F)c2)cc1 (configuration not stated) | 2.48 µM | > 100 µM | 4.14 µM | > 100 | – | – | – | – | 6.34 µM | > 100 | 7.54 µM | > 100 | 4.78 µM | 86.2 | 7.37 µM | > 100 | 5.28 µM | > 100 µM | 2.81 µM | > 100 |
| COc1ccc2[nH]cc(Cc3c[nH]c4ccc(OC)cc34)c2c1 | 19 µM | 41.4 µM | 15.8 µM | 29.2 | 17.9 | 45.9 | 3.32 µM | 14.5 µM | 4.65 µM | 19.4 | 17.4 µM | 37.4 | 13.7 µM | 50.6 | 21.8 µM | 53 | – | – | 16.5 µM | 30.1 |
| O=C(CCN1CCCC1)Nc1ccc2c(Nc3ccc(Br)cc3)c3ccccc3nc2c1 | 1.57 µM | 3.29 µM | – | – | 1.59 | 3.05 | 1.7 µM | 5.82 µM | 1.57 µM | 2.99 | – | – | 1.37 µM | 2.68 | 1.63 µM | 3.02 | – | – | 1.57 µM | 2.92 |
| CCOP(=O)(OCC)C(NC(c1ccccc1)c1ccccc1)c1ccsc1 (configuration not stated) | 16.7 µM | 37.5 µM | – | – | 21.7 | 41.6 | 30.8 µM | 49.6 µM | 7.05 µM | 20.5 | 23.5 µM | 57 | – | – | – | – | – | – | 18.4 µM | 35.1 |
| Cc1ccc2c(c1)C(=O)/C(=C/c1cccc(OCC(=O)c3ccc(Cl)cc3)c1)CS2 | 2.64 µM | 8.02 µM | 1.89 µM | 3.85 | 8.65 | 40.8 | – | – | 8.21 µM | 76.1 | 4.53 µM | 24.1 | 6.39 µM | 44.9 | 2.27 µM | 4.93 | 25.1 µM | 90.9 µM | 6.95 µM | 19.6 |
| N#Cc1ccc(C(=O)c2cnn(-c3ccc(F)cc3)c2N)cc1 | > 25 µM | > 25 µM | > 25 µM | > 25 | – | – | > 25 µM | > 25 µM | > 23.3 µM | > 25 | > 25 µM | > 25 | > 25 µM | > 25 | > 25 µM | > 25 | > 25 µM | > 25 µM | > 25 µM | > 25 |
| O=C1NC(c2cccc3ccccc23)Nc2ccccc21 (configuration not stated) | – | 5.91 µM and 10.4 µM | – | – | 0.0278 | > 100 | – | 0.0848 µM | – | 3.03 | 0.0783 µM | 12 | – | 35.9 | – | > 100 | 0.0316 µM | 0.252 µM | 0.00988 µM | – |
| Fc1ccc(-c2c(-c3ccncc3)[nH]c3cccnc23)cc1 | > 25 µM | > 25 µM | > 25 µM | > 25 | – | – | > 14.8 µM | > 25 µM | > 25 µM | > 25 | > 25 µM | > 25 | > 17.8 µM | > 25 | > 25 µM | > 25 | 10.6 µM | > 25 µM | 24.3 µM | > 25 |
| Oc1ccccc1/C=N\Nc1ccccc1 | 2.25 µM | > 100 µM | 7.22 µM | > 100 | 12.9 | > 100 | – | – | 0.553 µM | 22.7 | 4.94 µM | > 100 | 21.2 µM | > 100 | 5.33 µM | > 100 | 70.4 µM | > 100 µM | 3.59 µM | 19.8 |
